Test results from patent publication US12589101B2, “Cyclodextrin protein drug conjugates” (Regeneron Pharmaceuticals, Inc., priority 2017, dated 2026).
Converted amounts (≈) assume the structure as drawn. Where two headings read alike, the source gives them in different places. One block for each molecule: values may come before it. Square brackets hold non-standard residues; d marks the D form. Peptide text beside a SMILES is read from it. * marks the point of attachment. Dolaproine = CO[C@@H]([C@@H]1CCCN1)[C@@H](C)C(=O)O; Dil = CC[C@H](C)[C@H](NC)[C@@H](CC(=O)O)OC; X1 = C[C@@H](N*)[C@@H](O)c1ccccc1; NMeV = CN[C@H](C(=O)O)C(C)C

Columns and labels:
LXR = system: T1, LXR; test: THP1/LXR-Luc/Her2 bioassay (LXR activation, luciferase); assay type: cell-based; settings: THP1/LXR-Luc/Her2 cells, 48-hour incubation
T1 construct: other: THP1/LXR-Luc/Her2 cells, 48-hour incubation, relative to free payload 1d; other: THP1/LXR-Luc/Her2 cells, 48-hour incubation; other: THP1/Her2/LXR-Luc cells; other: differentiated THP1/LXR-Luc cells, 48 hours; other: THP1/LXR-Luc cells, PMA
Experimental: To test the comparability of ADCs with and without CDs containing LXR agonists anti-HER2 Ab ADC with and without CD were tested for their ability to activate LXR in a THP1/LXR-Luc/Her2 bioassay. In the assay, either THP1/LXR-Luc cells or THP1/LXR-Luc/Her2 cells were seeded onto white 96 well plates at 30,000 cells/well in media containing RPMI supplemented with 10% FBS and pencillin/streptomycinin (complete media). Subsequently 3-fold serial dilutions of antibody drug conjugates, unconjugated antibodies, or free payloads were added to the cells at final concentration ranging from 100 nM to 0.01 nM. After a 48-hour incubation, luciferase activity was determined after the addition of One-Glo™ reagent (Promega, E6130) to each well of cells. Relative light units (RLUs) were measured on a Victor luminometer (PerkinElmer) and the EC50 values were determined using a four-parameter logistic equation over a 10-point dose response curve (GraphPad Prism).

[1] = Solubility of linker-payloads (LC-MS standard curve, saturated solution); assay type: physicochemical; settings: aqueous with cosolvent or surfactant or cyclodextrin, thermodynamic from solid, in 10% DMSO/H2O; read-out: Solubility in other solvents
SKBR3 cells = test: SKBR3 cytotoxicity assay (CellTiter-Glo); assay type: cell-based
Experimental: To assess the comparability of ADCs with and without CDs containing cytotoxic payloads, a cytotoxicity assay used SKBR3 cells. SKBR3 cells have been commonly used to assess aHer2 ADC activity. An aPRLR ADC has been used as a control mAb ADC in the SKBR3 cytotoxicity assay. For the assay, in vitro cytotoxicity of anti-Her2 ADCs or PRLR ADCs were evaluated using the CellTiter-Glo Assay Kit (Promega, Cat #G7573), in which the quantity of ATP present is used to determine the number of viable cells in culture. For the assay, SKBR3 cells were seeded at 6000 cells/well on Nunclon white 96 well plates in complete growth medium and grown overnight at 37° C. in 5% CO2. For cell viability curves, 1:4 serially diluted ADCs or free payload MMAE were added to the cells at concentrations starting at 100 nM including a no treatment control and were then incubated for 5 days. After the 5-day incubation, cells were incubated at room temperature with 100 μL of CellTiter-Glo reagents for 5 minutes. Relative luminescence units (RLU) were determined on a Victor plate reader (PerkinElmer). The IC50 values were determined from a four-parameter logistic equation over a 10-point response curve (GraphPad Prism). All curves and EC50 values were corrected for payload equivalents. All IC50s are expressed in nM concentration and percentage of cells killed (% kill) is reported for the highest concentration tested.

Cathepsin B = Cathepsin B (Homo sapiens, UniProt P07858); test: Cathepsin B cleavage rate of linker-payloads (Example 66); assay type: biochemical
How it was run: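 Linker-payloads (25 μM) incubated with human cathepsin B at 37° C in 0.1 M NaOAc/0.01 M DTT, pH 5.0, with or without CA074 inhibitor; cleavage followed by LC/MS. Enzyme activity checked with Z-RR-MNA substrate (200 μM final), fluorescence 340/425 nm, in pH 6.0 Na/K phosphate buffer.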

[2] = Solubility of linker-payloads (LC-MS standard curve, saturated solution); assay type: physicochemical; settings: for solubility at 10 min: water, thermodynamic from solid
Human liver Cathepsin B = biological target: T2, Human liver Cathepsin B (Homo sapiens, UniProt P07858); test: Cathepsin B cleavage assay, payload released (Example 73); assay type: biochemical; settings: 37° C., 50 μM substrate, pH 5
T2 construct: Human liver Cathepsin B (Athens Research & Technology, Cat #16-12-030102); purchased Athens Research & Technology 16-12-030102; host or cells: human liver
Experimental: To determine the effect on the cleavage efficiency on a steroid or LXR agonist payload when a cyclodextrin moiety was added in the linker, a Cathepsin B cleavage assay was performed. For the assay, the linker-payload stock solution (10 mM of linker-payload in DMSO) was added into a solution of 100 mM NaOAc, 10 mM dithiothreitol, at pH5 to obtain a 50 μM substrate solution. Human liver Cathepsin B (Athens Research & Technology, Cat #16-12-030102) in 50 mM NaOAc, 1 mM EDTA, at pH 5, was added to the substrate solution. The Cathepsin B and substrate solution was mixed with and without 10 mM of a Cathepsin B inhibitor (CA074; APE Bio, Cat #A1926), and incubated at 37° C. for 4 hours. Following the 4 hour incubation, acetic acid and then acetonitrile were added to stop the reaction. The quenched samples then underwent centrifugation at 14,000 rpm. Aliquots of the resultant supernatants were then diluted with equal volume of water and analyzed by LC/MS to determine the amount of payload released. The stability and activity of Cathepsin B was confirmed by incubating with 200 μM fluorogenic substrate for Cathepsin B (Santa Cruz Biotechnology, Cat #207975) (fluorescence at excitation of 340 nm/emission of 425 nm).

EC50 (LXR): 2.8 nM
Maximal activation (LXR; relative to free payload 1d): Full activation
Structure (SMILES): C[C@]1(C(=O)NC(=O)[C@@]2(C)CCC[C@]3(C)c4cc(O)ccc4CC[C@@H]23)CCC[C@]2(C)c3cc(N)ccc3CC[C@@H]12 [Example 1d, (1S,4aS,10aR)-N-[(1S,4aS,10aR)-6-Amino-1,4a-dimethyl-1,2,3,4,4a,9,10,10a-octahydrophenanthrene-1-carbonyl]-6-hydroxy-1,4a-dimethyl-1,2,3,4,4a,9,10,10a-octahydrophenanthrene-1-carboxamide]

Structure (SMILES): CCCC1O[C@@H]2C[C@H]3[C@@H]4CCC5=CC(=O)C=C[C@]5(C)[C@H]4[C@@H](O)C[C@]3(C)[C@]2(C(=O)COc2ccc(NC(=O)[C@H](C)NC(=O)[C@@H](NC(=O)[C@@H](CCCCNC(=O)COC3CCCCCc4c3nnn4CC3OC4OC5C(CO)OC(OC6C(CO)OC(OC7C(CO)OC(OC8C(CO)OC(OC9C(CO)OC(OC3C(O)C4O)C(O)C9O)C(O)C8O)C(O)C7O)C(O)C6O)C(O)C5O)NC(=O)CCOCCOCCOCCOCCNC(=O)CCC(=O)N3Cc4ccccc4C#Cc4ccccc43)C(C)C)cc2)O1 (stereo partly drawn) [Ex46]
solubility at 10 min [1]: 100 µg/mL (≈ 39.7 µM)

Structure (SMILES): CC[C@H](C)[C@@H]([C@@H](CC(=O)N1CCC[C@H]1[C@H](OC)[C@@H](C)C(=O)N[C@H](C)[C@@H](O)c1ccccc1)OC)N(C)C(=O)[C@@H](NC(=O)[C@@H](NC)C(C)C)C(C)C [MMAE] (H-[NMeV]V[Dil][Dolaproine]-X1)
EC50 (SKBR3 cells; Homo sapiens, SK-BR-3, 120 h): 0.19 nM
% kill (SKBR3 cells; SKBR3 cells, 5 days, highest concentration tested): ≥90%

Structure (SMILES): CC(C)[C@H](NC(=O)CCOCCOCCOCCOCCNC(=O)CCC(=O)N1Cc2ccccc2C#Cc2ccccc21)C(=O)N[C@@H](C)C(=O)Nc1ccc2c(c1)[C@@]1(C)CCC[C@](C)(C(=O)NC(=O)[C@@]3(C)CCC[C@]4(C)c5cc(O)ccc5CC[C@@H]34)[C@@H]1CC2 [Ex48, 1-(4-{2-Azatricyclo[10.4.0.0^4,9]hexadeca-1(12),4(9),5,7,13,15-hexaen-10-yn-2-yl}-4-oxobutanamido)-N-[(1S)-1-{[(1 S)-1-{[(4bS,8S,8aR)-8-{[(1S,4aS,10aR)-6-hydroxy-1,4a-dimethyl-1,2,3,4,4a,9,10,10a-octahydrophenanthrene-1-carbonyl]carbamoyl}-4b,8-dimethyl-4b,5,6,7,8,8a,9,10-octahydrophenanthren-3-yl]carbamoyl}ethyl]carbamoyl}-2-methylpropyl]-3,6,9,12-tetraoxapentadecan-15-amide]
Cathepsin B cleavage rate (Cathepsin B): 62%
capB (Cathepsin B; Cathepsin B cleavage rate, Table 8A): 13.6%
CapB (%) (Cathepsin B; Cathepsin B cleavage rate, pH 5.0, 37° C.): % (% ≤50 CapB (%))
Solubility ([2]; 10 min): <0.1 mg/ mL mg/mL
solubility at 10 min ([2]; Aq. Solubility (mg/mL)): < 100 µg/mL
solubility at 10 min ([2]; Solubility): < 100 µg/mL
Percent of payload released at 4 hrs (Human liver Cathepsin B): 13.6%
